Results reported in US20260166128A1, “HUMAN AMYLIN ANALOG, AND DERIVATIVE THEREOF AND USE THEREOF” (priority 2022, published 2026).
Numbered stars: 1 amine (or outer) side, 2 acyl side, 3 side chain; on linkers, the order of the positions; unused ones are H or OH. Bridge positions count the residues as written; N and C are the ends. Square brackets hold non-standard residues; d marks the D form. Side chains are listed from the residue outwards. Peptide text beside a SMILES is read from it. * marks the point of attachment. C20 diacid = O=C(O)CCCCCCCCCCCCCCCCCCC(=O)*; C18 diacid = O=C(O)CCCCCCCCCCCCCCCCC(=O)*; γGlu = O=C(O)[C@H](CCC(=O)[*:2])N[*:1]; Hyp = O=C(O)[C@@H]1C[C@@H](O)CN1; AEEA = NCCOCCOCC(=O)O

Columns and labels:
human amylin receptor = biological target: T1, human amylin receptor (Homo sapiens, UniProt O60896+P30988); assay: Luciferase assay of amylin derivatives in amylin receptor/CRE-luc CHO cell line; type: cell-based; conditions: CHO-K1/Ga15/AMY3 CRE-luc cells, 24 hours incubation, F12 medium containing 10% FBS; read-out: EC50
T1 construct: host or cells: CHO-K1/Ga15/AMY3 cells, further stably transfected with a CRE-luciferase plasmid
T1 sequence (P30988 25-474): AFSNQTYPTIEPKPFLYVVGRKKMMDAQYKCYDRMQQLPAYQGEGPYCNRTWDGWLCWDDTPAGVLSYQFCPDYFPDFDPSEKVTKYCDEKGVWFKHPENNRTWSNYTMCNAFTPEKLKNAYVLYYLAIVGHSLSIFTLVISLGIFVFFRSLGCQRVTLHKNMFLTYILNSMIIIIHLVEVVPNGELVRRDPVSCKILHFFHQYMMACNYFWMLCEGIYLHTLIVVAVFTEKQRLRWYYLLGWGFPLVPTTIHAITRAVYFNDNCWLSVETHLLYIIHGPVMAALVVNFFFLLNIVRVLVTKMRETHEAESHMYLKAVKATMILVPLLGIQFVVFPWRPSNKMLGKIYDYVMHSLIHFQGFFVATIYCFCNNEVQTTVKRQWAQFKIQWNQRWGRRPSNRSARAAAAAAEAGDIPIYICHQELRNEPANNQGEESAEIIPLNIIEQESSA
T1 sequence (O60896 24-148 partner): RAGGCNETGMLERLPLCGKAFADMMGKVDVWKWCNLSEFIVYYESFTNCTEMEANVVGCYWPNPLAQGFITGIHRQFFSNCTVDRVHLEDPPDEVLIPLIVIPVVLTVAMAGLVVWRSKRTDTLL
Method: The experiment was intended to detect the activity or efficacy of the amylin derivatives on a human amylin receptor in vitro by luciferase assay.
50 μL of growth medium (F12 medium containing 10% FBS) was added into each well of a white 96-well plate, and the stably transfected amylin/CRE-lue CHO cells were inoculated into the white 96-well plate at a density of about 20,000 cells/well for activity determination.

[1] = Freeze-thaw stability of derivatives (freeze-thaw yield by liquid chromatography); type: physicochemical; conditions: for Dissolution property: appearance after dissolution at 0.2 mg/ml in 20 mM phosphate buffer solution (PB) (pH 7.0); for Freeze storage property: appearance after overnight storage at −20° C. and thawing to room temperature, 0.2 mg/ml in 20 mM PB (pH 7.0); for Freeze storage yield: concentration of polypeptide after freezing and thawing / concentration before, by liquid chromatography, −20° C. overnight
Outline: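 Lyophilised peptide derivative dissolved at 0.2 mg/ml in 20 mM phosphate buffer, pH 7.0, frozen overnight at −20° C, then thawed at room temperature. Peptide concentration before and after freeze-thaw measured by reversed-phase HPLC on centrifuged supernatant; yield = post-thaw/pre-thaw concentration.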

| EC50 (human amylin receptor) [nM] | Dissolution property [1] | Freeze storage property [1] | Freeze storage yield [1] [%] | SMILES |
| --- | --- | --- | --- | --- |
| 0.033 | Clear | Clear | 98.68 | CC[C@H](C)[C@H](NC(=O)[C@H](CCCCNC(=O)COCCOCCNC(=O)COCCOCCNC(=O)CC[C@H](NC(=O)CCCCCCCCCCCCCCCCCCC(=O)O)C(=O)O)NC(=O)CNC(=O)[C@H](CC(C)C)NC(=O)[C@H](CC(N)=O)NC(=O)[C@H](CC(N)=O)NC(=O)[C@H](CO)NC(=O)[C@H](CO)NC(=O)[C@H](Cc1c[nH]cn1)NC(=O)[C@H](CCCNC(=N)N)NC(=O)[C@H](CC(C)C)NC(=O)[C@H](Cc1ccccc1)NC(=O)[C@H](CC(=O)O)NC(=O)[C@H](C)NC(=O)[C@H](CC(C)C)NC(=O)[C@H](CCCNC(=N)N)NC(=O)[C@H](CCC(N)=O)NC(=O)[C@@H](NC(=O)[C@H](C)NC(=O)[C@@H]1CSSC[C@H](NC(=O)[C@@H](N)CCCNC(=N)N)C(=O)N[C@@H](CC(N)=O)C(=O)N[C@@H]([C@@H](C)O)C(=O)N[C@@H](C)C(=O)N[C@@H]([C@@H](C)O)C(=O)N1)[C@@H](C)O)C(=O)N[C@@H](CC(C)C)C(=O)N1CCC[C@H]1C(=O)N1CCC[C@H]1C(=O)N[C@H](C(=O)N[C@@H](CC(N)=O)C(=O)N[C@H](C(=O)NCC(=O)N[C@@H](CO)C(=O)N[C@@H](CC(N)=O)C(=O)N[C@H](C(=O)N1C[C@H](O)C[C@H]1C(N)=O)[C@@H](C)O)C(C)C)[C@@H](C)O [PD103] (H-RCNTATCATQRLADFLRHSSNNLGK([AEEA-AEEA-γGlu-C20 diacid])ILPPTNVGSNT[Hyp]-NH2; disulfide 2-7 (inferred); N-terminus assumed) |
| 0.028 | Clear | Clear | 96.86 | CC[C@H](C)[C@H](NC(=O)[C@@H]1CCCN1C(=O)[C@H](CCCCNC(=O)COCCOCCNC(=O)CC[C@H](NC(=O)CCCCCCCCCCCCCCCCC(=O)O)C(=O)O)NC(=O)[C@H](CC(C)C)NC(=O)[C@H](CC(N)=O)NC(=O)[C@H](CC(N)=O)NC(=O)[C@H](CO)NC(=O)[C@H](CO)NC(=O)[C@H](Cc1c[nH]cn1)NC(=O)[C@H](CCCNC(=N)N)NC(=O)[C@H](CC(C)C)NC(=O)[C@H](Cc1ccccc1)NC(=O)[C@H](CC(=O)O)NC(=O)[C@H](C)NC(=O)[C@H](CC(C)C)NC(=O)[C@H](CCCNC(=N)N)NC(=O)[C@H](CCC(N)=O)NC(=O)[C@@H](NC(=O)[C@H](C)NC(=O)[C@@H]1CSSC[C@H](NC(=O)[C@@H](N)CCCNC(=N)N)C(=O)N[C@@H](CC(N)=O)C(=O)N[C@@H]([C@@H](C)O)C(=O)N[C@@H](C)C(=O)N[C@@H]([C@@H](C)O)C(=O)N1)[C@@H](C)O)C(=O)N[C@@H](CC(C)C)C(=O)N1CCC[C@H]1C(=O)N1CCC[C@H]1C(=O)N[C@H](C(=O)N[C@@H](CC(N)=O)C(=O)N[C@H](C(=O)NCC(=O)N[C@@H](CO)C(=O)N[C@@H](CC(N)=O)C(=O)N[C@H](C(=O)N1C[C@H](O)C[C@H]1C(N)=O)[C@@H](C)O)C(C)C)[C@@H](C)O [PD108] (H-RCNTATCATQRLADFLRHSSNNLK([AEEA-γGlu-C18 diacid])PILPPTNVGSNT[Hyp]-NH2; disulfide 2-7 (inferred); N-terminus assumed) |
